Test results from patent US20100234467A1, “METHODS FOR IMPROVING BIOAVAILABILITY OF A RENIN INHIBITOR” (priority 2006, published 2010).

Test system: Caco-2 cell monolayers
Assay type: in vitro ADME
From the text: Alternatively, the in vitro transporter affinity of a drug substance can be determined and approximated by a Caco-2 cell assay as described, e.g., in […] et al., Pharm. Act. Helv. 71, 309-327 (1996), or as illustrated herein in the Examples. The identification of the transporter protein and the efficacy of a compound to inhibit the efflux system involved may as well be determined in the Caco-2 cell assay. […] Caco-2 cell monolayers grown on PET filters for 21-25 days are used for the transport experiments. The flux of compounds across Caco-2 cell monolayers grown on PET filters as well as across PET filters alone without Caco-2 cells is determined as follows: […] To start the experiment, the medium in the donor compartment (0.35 mL for apical and 1.15 mL for basolateral sides) is replaced with donor solution (compound in HBSS, when relevant containing inhibitor of interest) pre-incubated at 37° C. Aliquots of 150 μL are removed from the donor and the acceptor side after about 1 and 120 min. Transport experiments in both apical-to-basolateral and basolateral-to-apical directions are performed in triplicate at 37° C. in an incubator without shaking. […] Radioactive samples are analyzed by liquid scintillation counting. All other non-radiolabeled samples are kept frozen at -20° C. until analysis by liquid chromatography/tandem mass spectrometry (LC-MS/MS). Transport values of the compounds tested are determined using the following equation (Artursson et al., Biochem. Biophys. Res. Comm. 175: 880-885, 1991): where Papp (cm/min) is the apparent permeability coefficient, ΔQ is the amount of compound found in the acceptor compartment at time t, Δt (min) is the incubation time period, C0 (μg/mL) is the initial concentration of the compound in the donor compartment and A (cm^2) is the surface area of the membrane. […] Under the conditions of this study, the LOQ of absolute radioactivity is 2 dpm for [^14C]-labeled Aliskiren corresponding to 12 nmol/L. Papp values are presented as means±standard deviations of the transport experiments performed (n=3). […]

Row | apical to basolateral flux of marker (Papp, below threshold) (human, Caco-2, 120 min) | efflux substrate identification (Caco-2) | intrinsic permeability (human, Caco-2, 120 min) | Structure (SMILES)
1 | < 0.5 ×10⁻⁶ cm/s |  |  | OC[C@@H](O)[C@@H](O)[C@H](O)[C@H](O)CO [Mannitol]
2 |  | substrate for a prominent efflux system | < 80% | COCCCOc1cc(C[C@@H](C[C@H](N)[C@@H](O)C[C@H](C(=O)NCC(C)(C)C(N)=O)C(C)C)C(C)C)ccc1OC [Aliskiren, (2S,4S,5S,7S)-5-amino-4-hydroxy-2-isopropyl-7-[4-methoxy-3-(3-methoxy-propoxy)-benzyl]-8-methyl-nonanoic acid (2-carbamoyl-2-methyl-propyl)-amide hemifumarate]
